Data taken from ChEMBL document CHEMBL1154925 (Bioorg Med Chem Lett, 2010).
pIC50: −log10 of the molar value. The source made the active and inactive calls. No cut-off for these calls is given here.

Tests used:
[1] = biological target: T1, Prostaglandin G/H synthase 2 (Mus musculus, UniProt Q05769)
T1 sequence (Q05769 whole entry): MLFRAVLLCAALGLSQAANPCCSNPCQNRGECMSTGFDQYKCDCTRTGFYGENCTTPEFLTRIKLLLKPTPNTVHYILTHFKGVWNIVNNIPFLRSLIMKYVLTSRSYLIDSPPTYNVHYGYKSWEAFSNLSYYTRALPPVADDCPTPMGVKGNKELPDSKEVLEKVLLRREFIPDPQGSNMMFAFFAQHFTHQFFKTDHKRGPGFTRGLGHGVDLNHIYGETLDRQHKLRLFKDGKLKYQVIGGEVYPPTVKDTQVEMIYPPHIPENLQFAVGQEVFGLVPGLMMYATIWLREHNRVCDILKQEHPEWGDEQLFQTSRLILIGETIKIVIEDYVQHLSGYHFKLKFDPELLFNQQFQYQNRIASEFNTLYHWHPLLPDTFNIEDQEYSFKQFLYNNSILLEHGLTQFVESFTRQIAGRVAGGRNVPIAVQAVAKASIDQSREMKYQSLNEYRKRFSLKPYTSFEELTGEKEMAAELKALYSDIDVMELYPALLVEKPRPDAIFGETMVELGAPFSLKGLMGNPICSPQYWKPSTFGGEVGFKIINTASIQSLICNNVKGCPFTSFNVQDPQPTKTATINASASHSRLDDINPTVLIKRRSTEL

[2] = Half life in stimulated gastric fluid of pH 1.0; settings: simulated gastric fluid
[3] = tested on: Raji; test: cells; settings: Homo sapiens, 72 h
[4] = biological target: T2, Prostaglandin G/H synthase 1 (Ovis aries, UniProt P05979)
T2 sequence (P05979 whole entry): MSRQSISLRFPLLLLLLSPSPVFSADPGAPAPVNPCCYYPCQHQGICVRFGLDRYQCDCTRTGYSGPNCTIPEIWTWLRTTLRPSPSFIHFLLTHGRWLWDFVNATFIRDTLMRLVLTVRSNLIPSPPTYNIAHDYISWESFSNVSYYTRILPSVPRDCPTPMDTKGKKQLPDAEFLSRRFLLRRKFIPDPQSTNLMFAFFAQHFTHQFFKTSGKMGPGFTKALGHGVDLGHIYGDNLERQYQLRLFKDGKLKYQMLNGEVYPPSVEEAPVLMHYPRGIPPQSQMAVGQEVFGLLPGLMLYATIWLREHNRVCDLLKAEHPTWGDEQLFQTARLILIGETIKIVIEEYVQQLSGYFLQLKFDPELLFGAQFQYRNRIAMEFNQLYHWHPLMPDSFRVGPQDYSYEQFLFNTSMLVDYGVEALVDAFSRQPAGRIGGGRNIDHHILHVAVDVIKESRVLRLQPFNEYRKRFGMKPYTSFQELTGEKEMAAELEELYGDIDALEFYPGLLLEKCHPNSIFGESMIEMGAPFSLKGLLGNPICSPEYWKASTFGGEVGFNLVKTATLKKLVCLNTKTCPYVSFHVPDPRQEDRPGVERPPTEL

[5] = tested on: HEK293; test: cells; settings: Homo sapiens, HEK293, 72 h
[6] = biological target: Prostaglandin G/H synthase 1 (Homo sapiens) (UniProt P23219); test: Inhibition of human COX1
[7] = biological target: T3, Prostaglandin G/H synthase 2 (Homo sapiens) (UniProt P35354); test: Inhibition of human COX2
T3 sequence (whole entry): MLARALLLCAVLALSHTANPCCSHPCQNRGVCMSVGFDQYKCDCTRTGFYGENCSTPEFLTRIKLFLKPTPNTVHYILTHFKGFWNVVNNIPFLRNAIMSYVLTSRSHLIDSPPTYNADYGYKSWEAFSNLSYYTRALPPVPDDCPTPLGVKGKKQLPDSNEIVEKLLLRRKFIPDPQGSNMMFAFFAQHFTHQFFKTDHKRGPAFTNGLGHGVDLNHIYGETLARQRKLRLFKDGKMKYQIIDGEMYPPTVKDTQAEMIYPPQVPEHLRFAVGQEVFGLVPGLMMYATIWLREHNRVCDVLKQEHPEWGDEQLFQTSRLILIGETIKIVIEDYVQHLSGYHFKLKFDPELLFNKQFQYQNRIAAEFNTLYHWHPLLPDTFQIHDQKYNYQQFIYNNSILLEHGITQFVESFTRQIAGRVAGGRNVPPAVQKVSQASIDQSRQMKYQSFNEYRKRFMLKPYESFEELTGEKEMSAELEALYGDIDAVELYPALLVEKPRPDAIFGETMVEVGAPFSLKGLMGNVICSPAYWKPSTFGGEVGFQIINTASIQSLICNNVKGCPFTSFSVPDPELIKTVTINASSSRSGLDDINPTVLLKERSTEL

[8] = tested on: Trypanosoma brucei brucei; settings: 100 nM
[9] = tested on: Trypanosoma brucei brucei; settings: 1 uM
[10] = tested on: Trypanosoma brucei brucei; test: microbe, parasite or virus in culture; settings: 48 h
[11] = tested on: Trypanosoma brucei brucei; settings: 1 uM; remark: listed apart in the source
[12] = tested on: Trypanosoma brucei brucei; settings: 100 nM; remark: listed apart in the source

Sequence of Prostaglandin G/H synthase 1 (Homo sapiens) (P23219 whole entry): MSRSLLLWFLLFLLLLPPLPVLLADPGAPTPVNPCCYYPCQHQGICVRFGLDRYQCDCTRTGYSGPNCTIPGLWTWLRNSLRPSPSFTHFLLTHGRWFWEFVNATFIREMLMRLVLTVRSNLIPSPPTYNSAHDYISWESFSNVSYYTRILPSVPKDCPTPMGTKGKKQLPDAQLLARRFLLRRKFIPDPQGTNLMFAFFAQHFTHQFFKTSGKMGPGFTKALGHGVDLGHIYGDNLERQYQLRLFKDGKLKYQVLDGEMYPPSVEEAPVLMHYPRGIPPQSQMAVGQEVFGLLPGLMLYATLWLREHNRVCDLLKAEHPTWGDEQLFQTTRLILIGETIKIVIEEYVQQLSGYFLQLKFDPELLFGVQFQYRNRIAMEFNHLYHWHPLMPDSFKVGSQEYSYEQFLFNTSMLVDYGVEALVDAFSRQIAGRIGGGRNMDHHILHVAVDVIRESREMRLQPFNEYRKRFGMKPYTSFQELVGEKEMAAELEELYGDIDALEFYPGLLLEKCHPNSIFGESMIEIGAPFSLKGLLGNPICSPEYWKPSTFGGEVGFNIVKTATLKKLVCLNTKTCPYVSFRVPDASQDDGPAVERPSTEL

Compound | pIC50 [1] | half-life [2] [h] | pIC50 [3] | pIC50 [4] | pIC50 [5] | inhibition [6] | inhibition [7] | inhibition [8] | inhibition [9] | pIC50 [10] | inhibition [11] | inhibition [12]
COc1cc([C@H]2c3cc4c(cc3[C@@H](OC(=O)CCC(=O)NCCCCNC(=O)[C@@H](C)c3ccc(CC(C)C)cc3)[C@@H]3COC(=O)[C@@H]23)OCO4)cc(OC)c1OC | < 5.40 | > 24 | 6.77 | < 5.40 | 6.80 | – | – | – | – | – | – | –
COc1ccc2c(c1)c(CC(=O)NCCCCCNC(=O)CCC(=O)O[C@@H]1c3cc4c(cc3[C@H](c3cc(OC)c(OC)c(OC)c3)[C@@H]3C(=O)OC[C@H]31)OCO4)c(C)n2C(=O)c1ccc(Cl)cc1 | – | > 24 | 6.55 | < 5.40 | – | inactive | inactive | – | – | – | – | –
COc1cc([C@H]2c3cc4c(cc3[C@@H](OC(=O)CCC(=O)NCc3ccc(NS(=O)(=O)c5cccc6c(N(C)C)cccc56)cc3)[C@@H]3COC(=O)[C@@H]23)OCO4)cc(OC)c1OC | < 5.40 | > 24 | 7.43 | < 5.40 | – | – | – | – | – | – | – | –
COc1ccc(CCNC(=O)CCC(=O)O[C@@H]2c3cc4c(cc3[C@H](c3cc(OC)c(OC)c(OC)c3)[C@@H]3C(=O)OC[C@H]32)OCO4)cc1 | < 5.40 | > 24 | 6.89 | < 5.40 | 7.10 | – | – | – | – | – | – | –
COc1ccc2c(c1)c(CCNC(=O)CCC(=O)O[C@@H]1c3cc4c(cc3[C@H](c3cc(OC)c(OC)c(OC)c3)[C@@H]3C(=O)OC[C@H]31)OCO4)c(C)n2Cc1ccc(Br)cc1 | < 5.40 | > 24 | 6.38 | < 5.40 | 6.62 | – | – | – | – | – | – | –
COc1ccc2c(c1)c(CC(=O)NCCCCNC(=O)CCC(=O)O[C@@H]1c3cc4c(cc3[C@H](c3cc(OC)c(OC)c(OC)c3)[C@@H]3C(=O)OC[C@H]31)OCO4)c(C)n2C(=O)c1ccc(Cl)cc1 | 6.53 | > 24 | 6.92 | – | 6.80 | inactive | inactive | Active | Active | – | – | –
COc1ccc2c(c1)c(CC(=O)NCCOC(=O)CCC(=O)O[C@@H]1c3cc4c(cc3[C@H](c3cc(OC)c(OC)c(OC)c3)[C@@H]3C(=O)OC[C@H]31)OCO4)c(C)n2C(=O)c1ccc(Cl)cc1 | – | > 24 | 5.89 | – | 6.07 | inactive | inactive | – | – | – | – | –
COc1ccc2c(c1)c(CC(=O)N1CCN(C(=O)CCC(=O)O[C@@H]3c4cc5c(cc4[C@H](c4cc(OC)c(OC)c(OC)c4)[C@@H]4C(=O)OC[C@H]43)OCO5)CC1)c(C)n2C(=O)c1ccc(Cl)cc1 | – | > 24 | 6.29 | – | 6.28 | inactive | inactive | – | – | – | – | –
COc1cc([C@H]2c3cc4c(cc3[C@@H](OC(=O)CCC(=O)NCCCCNC(=O)[C@@H](C)c3cccc(C(=O)c5ccccc5)c3)[C@@H]3COC(=O)[C@@H]23)OCO4)cc(OC)c1OC | < 5.40 | > 24 | < 4.30 | < 5.40 | < 4.30 | – | – | – | – | – | – | –
COc1cc([C@@H]2c3cc4c(cc3[C@H](O)[C@H]3COC(=O)[C@H]23)OCO4)cc(OC)c1OC [PODOFILOX] | < 5.40 | > 24 | 7.74 | < 5.40 | 7.77 | – | – | – | – | – | – | –
COc1ccc2c(c1)c(CC(=O)O)c(C)n2C(=O)c1ccc(Cl)cc1 [INDOMETHACIN] | – | > 24 | < 4.30 | – | < 4.30 | – | – | – | – | < 4.30 | – | –
COc1cc([C@@H]2c3cc4c(cc3[C@H](OC(=O)CCC(=O)O)[C@H]3COC(=O)[C@H]23)OCO4)cc(OC)c1OC [SUCCINYLPODOPHYLLOTOXIN] | < 5.40 | > 24 | 7.00 | < 5.40 | 7.12 | – | – | – | – | – | – | –
COc1ccc2cc([C@@H](C)C(=O)NCCCCNC(=O)CCC(=O)O[C@@H]3c4cc5c(cc4[C@H](c4cc(OC)c(OC)c(OC)c4)[C@@H]4C(=O)OC[C@H]43)OCO5)ccc2c1 | < 5.40 | > 24 | 6.37 | < 5.40 | 6.48 | – | – | – | – | – | – | –
COc1cc([C@H]2c3cc4c(cc3[C@@H](OC(=O)CCC(=O)NC[C@H](C)c3ccccc3)[C@@H]3COC(=O)[C@@H]23)OCO4)cc(OC)c1OC | < 5.40 | > 24 | 6.27 | < 5.40 | 6.44 | – | – | – | – | – | – | –
COc1cc([C@H]2c3cc4c(cc3[C@@H](OC(=O)CCC(=O)NCCCCNC(=O)[C@@H](C)c3ccc(-c5ccccc5)c(F)c3)[C@@H]3COC(=O)[C@@H]23)OCO4)cc(OC)c1OC | < 5.40 | > 24 | 6.74 | < 5.40 | 6.74 | – | – | – | – | – | – | –
CO[C@@H](/C(C)=C/C=C/C(C)=C/c1coc(C)n1)[C@@H](C)[C@@H]1C[C@H](O)[C@@]2(C)O[C@@H]2/C=C/[C@@H](C)[C@H]2C[C@H](CC(=O)O2)C[C@@H]2O[C@H]2C(=O)O1 [RHIZOXIN] | – | > 24 | 6.47 | – | 6.46 | – | – | – | – | – | Active | Active
